The source of these data is patent US20180044304A1, “1,3,4-OXADIAZOLE AND THIADIAZOLE COMPOUNDS AS IMMUNOMODULATORS” (AURIGENE DISCOVERY TECHNOLOGIES LIMITED, priority 2015, published 2018).

The assay addresses T1, Recombinant mouse PD-L1 (Mus musculus, UniProt Q9EP73).
T1 construct: Fc (Fc chimera); purchased R&D Systems 1019-B7-100
Briefly: Rescue of mouse splenocyte proliferation in the presence of recombinant PD-L1 (CFSE proliferation assay). It counts as cell-based. Conditions: 100 nM compound; anti-CD3/CD28 stimulated C57 BL6 mouse splenocytes with PD-L1; 72 h; stimulated splenocyte proliferation = 100%; read-out: Percent rescue of splenocyte proliferation (@100 nM compound concentration). As to the method:
Rescue of Mouse Splenocyte Proliferation in the Presence of Recombinant PD-L1
Recombinant mouse PD-L1 (rm-PDL-1, cat no: 1019-B7-100; R&D Systems) were used as the source of PD-L1.
Mouse splenocytes harvested from 6-8 weeks old C57 BL6 mice; RPMI 1640 (GIBCO, Cat #11875); DMEM with high glucose (GIBCO, Cat #D6429); Fetal Bovine Serum [Hyclone, Cat #SH30071.03]; Penicillin (10000 unit/mL)-Streptomycin(10,000 μg/mL) Liquid (GIBCO, Cat #15140-122); MEM Sodium Pyruvate solution 100 mM (100×), Liquid (GIBCO, Cat #11360); Nonessential amino acid (GIBCO, Cat #11140); L-Glutamine (GIBCO, Cat #25030); Anti-CD3 antibody (eBiosciences—16-0032); Anti-CD28 antibody (eBiosciences—16-0281); ACK lysis buffer (1 mL) (GIBCO, Cat #-A10492); Histopaque (density-1.083 gm/mL) (SIGMA 10831); Trypan blue solution (SIGMA-T8154); 2 mL Norm Ject Luer Lock syringe-(Sigma 2014-12); 40 μm nylon cell strainer (BD FALCON 35230); Hemacytometer (Bright line-SIGMA Z359629); FACS Buffer (PBS/0.1% BSA): Phosphate Buffered Saline (PBS) pH 7.2 (HiMedia TS1006) with 0.1% Bovine Serum Albumin (BSA) (SIGMA A7050) and sodium azide (SIGMA 08591); 5 mM stock solution of CFSE: CFSE stock solution was prepared by diluting lyophilized CFSE with 180 μl of Dimethyl sulfoxide (DMSO C2H6SO, SIGMA-D-5879) and aliquoted in to tubes for further use. Working concentrations were titrated from 10 μM to 1 μM. (eBioscience-650850-85); 0.05% Trypsin and 0.02% EDTA (SIGMA 59417C); 96-well format ELISA plates (Corning CLS3390); BD FACS caliber (E6016); Recombinant mouse B7-H1/PDL1 Fc Chimera, (rm-PD-L1 cat no: 1019-B7-100).
Splenocytes harvested in a 50 mL falcon tube by mashing mouse spleen in a 40 μm cell strainer were further treated with 1 mL ACK lysis buffer for 5 min at room temperature. After washing with 9 mL of RPMI complete media, cells were re-suspended in 3 mL of 1× PBS in a 15 mL tube. 3 mL of Histopaque was added carefully to the bottom of the tube without disturbing overlaying splenocyte suspension. After centrifuging at 800×g for 20 min at room temperature, the opaque layer of splenocytes was collected carefully without disturbing/mixing the layers. Splenocytes were washed twice with cold 1× PBS followed by total cell counting using Trypan Blue exclusion method and used further for cell based assays.
Splenocytes were cultured in RPMI complete media (RPMI+10% fetal bovine serum+1 mM sodium pyruvate+10,000 units/mL penicillin and 10,000 μg/mL streptomycin) and maintained in a CO2 incubator with 5% CO2 at 37° C.
CFSE is a dye that passively diffuses into cells and binds to intracellular proteins. 1×10^6 cells/mL of harvested splenocytes were treated with 5 μM of CFSE in pre-warmed 1× PBS/0.1% BSA solution for 10 min at 37° C. Excess CFSE was quenched using 5 volumes of ice-cold culture media to the cells and incubated on ice for 5 min. CFSE labelled splenocytes were further given three washes with ice cold complete RPMI media. CFSE labelled 1×10^5 splenocytes added to wells containing either MDA-MB231 cells (1×10^5 cells cultured in high glucose DMEM medium) or recombinant human PDL-1 (100 ng/mL) and test compounds. Splenocytes were stimulated with anti-mouse CD3 and anti-mouse CD28 antibody (1 μg/mL each) and the culture was further incubated for 72 h at 37° C. with 5% CO2. Cells were harvested and washed thrice with ice cold FACS buffer and % proliferation was analysed by flow cytometry with 488 nm excitation and 521 nm emission filters.
Percent splenocyte proliferation was analysed using cell quest FACS program and percent rescue of splenocyte proliferation by compound was estimated after deduction of % background proliferation value and normalising to % stimulated splenocyte proliferation (positive control) as 100%. • Stimulated splenocytes: Splenocytes+anti-CD3/CD28 stimulation • Background proliferation: Splenocytes+anti-CD3/CD28+PD-L1 • Compound proliferation: Splenocytes+anti-CD3/CD28+PD-L1+Compound […]

T1 sequence (Q9EP73 with tags, fused parts or gaps limits assumed): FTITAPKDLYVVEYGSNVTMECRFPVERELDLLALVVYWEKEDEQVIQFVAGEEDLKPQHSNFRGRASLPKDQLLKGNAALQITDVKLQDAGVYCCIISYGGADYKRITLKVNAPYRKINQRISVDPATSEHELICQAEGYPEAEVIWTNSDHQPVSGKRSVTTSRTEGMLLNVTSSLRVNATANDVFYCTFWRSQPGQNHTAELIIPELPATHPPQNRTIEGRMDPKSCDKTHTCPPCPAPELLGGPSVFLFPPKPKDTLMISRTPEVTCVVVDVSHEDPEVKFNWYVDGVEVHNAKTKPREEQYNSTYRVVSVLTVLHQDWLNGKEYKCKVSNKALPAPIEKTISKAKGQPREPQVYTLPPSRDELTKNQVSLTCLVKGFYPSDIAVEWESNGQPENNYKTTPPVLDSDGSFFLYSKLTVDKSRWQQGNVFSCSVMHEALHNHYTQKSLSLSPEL

`NCCCC[C@H](N)c1nnc([C@H](CC(N)=O)NC(=O)N[C@@H](CCC(=O)O)C(=O)O)o1` [Compound 1]: the activation at 0.1 µM stood at 79%.
The figure for `CCC(C)[C@H](NC(=O)N[C@@H](CCC(=O)O)C(=O)O)c1nnc([C@@H](N)CCC(=O)O)o1` (stereo partly drawn) [Compound 2] is 49%; for `CC(O)[C@H](NC(=O)N[C@@H](CC(N)=O)c1nnc([C@@H](N)CCCCN)o1)C(=O)O` (stereo partly drawn) [Compound 4] it is 70%.
The figure for `CCC(C)[C@H](NC(=O)N[C@H](C(=O)O)C(C)O)c1nnc([C@@H](N)CO)o1` (stereo partly drawn) [Compound 5] is 16%.
`CC(O)[C@H](NC(=O)N[C@@H](CCCCN)c1nnc([C@@H](N)CO)o1)C(=O)O` (stereo partly drawn) [Compound 6]: the activation at 0.1 µM stood at 30%.
As for `CC(O)[C@H](NC(=O)N[C@@H](Cc1ccccc1)c1nnc([C@@H](N)CO)o1)C(=O)O` (stereo partly drawn) [Compound 7], the figure is 29%; as for `N[C@@H](Cc1ccc(O)cc1)c1nnc([C@@H]2CCCN2C(=O)N[C@@H](Cc2ccc(O)cc2)C(=O)O)o1` [Compound 8], 60%.
Turning to `CC(O)[C@H](NC(=O)N[C@H](c1nnc([C@@H](N)C(C)O)o1)C(C)O)C(=O)O` (stereo partly drawn) [Compound 9], the activation at 0.1 µM worked out at 29%.
As for `NC(=O)C[C@H](NC(=O)N[C@@H](CC(=O)O)C(=O)O)c1nnc([C@@H](N)CO)o1` [Compound 10], the figure is 34%; as for `NCCCC[C@H](N)c1nnc([C@H](CC(N)=O)NC(=O)N[C@@H](CO)C(=O)O)o1` [Compound 11], 30%.
`CCC(C)[C@H](N)c1nnc([C@@H](NC(=O)N[C@@H](CCC(=O)O)C(=O)O)C(C)CC)o1` (stereo partly drawn) [Compound 12]: the activation at 0.1 µM was determined as 68%.
Turning to `NCCCC[C@H](NC(=O)N[C@@H](CC(N)=O)c1nnc([C@@H](N)CO)o1)C(=O)O` [Compound 13], the activation at 0.1 µM worked out at 29%.
As for `NC(=O)C[C@H](NC(=O)N[C@@H](Cc1ccccc1)C(=O)O)c1nnc([C@@H](N)CO)o1` [Compound 15], the figure is 23%; as for `CC(O)[C@H](NC(=O)N[C@@H](CC(N)=O)c1nnc([C@@H](N)CC(=O)O)o1)C(=O)O` (stereo partly drawn) [Compound 16], 37%.
For the compound `CC(O)[C@H](NC(=O)N[C@@H](CCC(=O)O)c1nnc([C@@H](N)CCCCN)o1)C(=O)O` (stereo partly drawn) [Compound 18], the activation at 0.1 µM is 41%.
As for `NC(=O)CC[C@H](NC(=O)N[C@@H](CO)c1nnc([C@@H](N)Cc2c[nH]c3ccccc23)o1)C(=O)O` [Compound 20], the figure is 74%.
The figure for `CSC[C@H](N)c1nnc([C@H](CC(N)=O)NC(=O)N[C@H](C(=O)O)C(C)O)o1` (stereo partly drawn) [Compound 24] is 47%; for `N[C@@H](CO)c1nnc([C@H](Cc2c[nH]c3ccccc23)NC(=O)N[C@@H](CC(=O)O)C(=O)O)o1` [Compound 28] it is 66%.
